Measured values reported in patent US5869514A, “Terpenoidic derivatives useful as antitumor agents” (Pharmacia & Upjohn S.p.A., priority 1995, dated 1999).

Legend:
[1] = tested on: L1210/DX (Doxorubicin resistant) murine leukemia cell line; assay: Cell cultures and drug sensitivity assay (inhibition of cell growth, cell counting), Doxorubicin resistant cells; format: cell-based; settings: for R.I: L1210/DX versus L1210, 48 h treatment; for IC50: Mus musculus, L1210/DX cells (Doxorubicin resistant), 48 h treatment, read-out: ID50 (nM) L1210/DX
Procedure: (§1) (b) Cell Cultures and Drug Sensitivity Assay
(§2) L1210 and L1210/DX (Doxorubicin resistant) murine leukemia cell lines were grown in vitro as a stationary suspension culture in RPMI 1640 medium (GIBCO, Grand island, N.Y.) supplemented with 10% fetal calf serum (Flow, Irwine, UK), 2 mM L-glutamine (Gibco Europe, Glasgow, UK), 10 μM β-mercaptoethanol, 100 Units/ml penicillin and 100 μg/ml streptomycin.
(§3) Exponentially growing cells were seeded (1×10^5 cell/ml) in 12-well/plates (Costar, Cambridge, Mass.) and various concentrations of tested compounds were added immediately after seeding.
(§4) The plates were incubated at 37° C. in a humidified, 5% CO2 atmosphere for 48 hr.
(§5) Inhibition of cell growth was evaluated by counting surviving cells in a ZBI Coulter Counter (Hialeah, Fla.). The 50% inhibitory concentration (IC50) was calculated on the derived concentration-response curve. For each tested compound concentration, duplicate cultures were used.

Calf brain tubulin = assay: Tubulin assembly test (repolymerization in presence of CaCl2, turbidity at 340 nm); format: biochemical; settings: tubulin 1 mg/ml, 1 mM GTP, after 4 mM CaCl2
Procedure: (a) Tubulin Assembly Test
Calf brain tubulin was prepared by two cycles of assembly-disassembly (Shelanski M. L., Gaskin F. and Cantor C. R., Proc. Natl.Acad.Sci. U.S.A. 70, 765-768, 1973; and stored in liquid nitrogen in MAB (0.1M MES, 2.5 mM EGTA, 0.5 mM MgSO4, 0.1 mM EDTA, 0.1 mM DTT, pH 6.4).
All the experiments were carried out on protein stored for less than 4 weeks.
Before each experiment, tubulin was kept 30 min at 4° C. Assembly was monitored by the method of Gaskin et al. (Gaskin F., Cantor C. R. and Shelanski M. L., J.Molec.Biol. 89, 737-758, 1974).
The cuvette (1 cm path) containing tubulin (1 mg/ml) and 1 mM GTP was shifted to 37° C. and continuous turbidity measurements were made at 340 nm on a Perkin-Elmer 557 double wavelength, double beam spectrophotometer equipped with an automatic recorder and a thermostatically regulated sample chamber.
After 30 minutes, 4 mM CaCl2 was added and depolymerisation was measured for 10 minutes as decreased turbidity.
At regular intervals of 15 minutes scaled doses of the tested compounds were added and variations in the turbidity were monitored.
Data are expressed as percentage of repolymerization induced by the tested compounds.

[2] = tested on: L1210 murine leukemia cell line; assay: Cell cultures and drug sensitivity assay (inhibition of cell growth, cell counting); format: cell-based; settings: Mus musculus; L1210 cells, 48 h treatment; read-out: ID50 (nM) L1210
Procedure: as §1, §2, §3, §4, §5

Structure (SMILES)	R.I [1]	IC50 [1] [nM]	tubulin assembly (%) (percentage of repolymerization induced by the tested compound) (Calf brain tubulin; dosage 4 μM)	tubulin assembly (%) (percentage of repolymerization induced by the tested compound) (Calf brain tubulin; dosage 40 μM)	IC50 [2] [nM]	tubulin assembly (%) (percentage of repolymerization induced by the tested compound) (Calf brain tubulin; dosage 3.9 μM)	tubulin assembly (%) (percentage of repolymerization induced by the tested compound) (Calf brain tubulin; dosage 39 μM)
COC(=O)C1=CC2C(CC(OC(=O)C=Cc3cn(C)cn3)C3(C)C=CC1(O)O3)C(C)=CCC2C(C)C (single isomer, unassigned; (-)) [Sarcodictyin A]	1.4	754 ± 80.3	70	162	539 ± 97.7	–	–
COC(=O)C1=CC2C(CC(OC(=O)C=Cc3cn(C)cn3)C3(C)C=CC1(O)O3)C(C)=CC(O)C2C(C)C (single isomer, unassigned; (-)) [Sarcodictyin C]	14.2	5790 ± 183	–	–	408 ± 21.3	112	173
